Reference: ChEMBL document CHEMBL3044942, “Unexpected plant-systemic insecticidal properties of alkylene-tethered bis-imidacloprid derivatives” (J Pestic Sci, 2010)
Activity calls are given as the source filed them. The calls are words filed in the database; no cut-off is given here.

What was measured:
[1] = test system: Myzus persicae; experiment: Insecticidal activity against Myzus persicae (green peach aphid) in compound treated chinese cabbage leaves assessed as mortality after foliar dipping at 10 mg/l at 25 degC measured after 120 hr; assay type: functional
[2] = test system: Myzus persicae; experiment: Insecticidal activity against Myzus persicae (green peach aphid) in compound treated chinese cabbage leaves assessed as mortality after foliar dipping at 100 mg/l at 25 degC measured after 120 hr; assay type: functional
[3] = test system: Spodoptera litura; experiment: Insecticidal activity against Spodoptera litura in compound treated chinese cabbage leaves assessed as mortality after foliar dipping at 100 mg/l at 25 degC measured after 120 hr; assay type: functional
[4] = Octanol-water partition coefficient, log P of the compound; assay type: physicochemical
[5] = test system: Spodoptera litura; experiment: Insecticidal activity against Spodoptera litura in compound treated chinese cabbage leaves assessed as mortality after foliar dipping at 10 mg/l at 25 degC measured after 120 hr; assay type: functional
[6] = test system: Nilaparvata lugens; experiment: Insecticidal activity against Nilaparvata lugens (brown planthopper) in rice seedlings assessed as mortality measured on day 3 after foliar treatment by residual insecticidal activity assay; assay type: functional, organism-based
[7] = test system: Nilaparvata lugens; experiment: Insecticidal activity against Nilaparvata lugens (brown planthoppers) in rice seedlings root dipped in compound assessed as mortality at 100 mg/l measured after 7 days of drench application by systemic insecticidal activity assay; assay type: functional, organism-based
[8] = test system: Plutella xylostella; experiment: Insecticidal activity against Plutella xylostella (diamondback moth) in compound treated cabbage leaves assessed as mortality at 10 mg/l measured on day 3 after foliar treatment by residual insecticidal activity assay; assay type: functional, organism-based
[9] = test system: Myzus persicae; experiment: Insecticidal activity against Myzus persicae (green peach aphid) in compound treated chinese cabbage leaves assessed as mortality at 10 mg/l measured on day 3 after foliar treatment by residual insecticidal activity assay; assay type: functional, organism-based
[10] = test system: Nilaparvata lugens; experiment: Insecticidal activity against Nilaparvata lugens (brown planthoppers) in rice seedlings root dipped in compound assessed as mortality at 100 mg/l measured after 3 days of drench application by systemic insecticidal activity assay; assay type: functional, organism-based
[11] = test system: Nilaparvata lugens; experiment: Insecticidal activity against Nilaparvata lugens (brown plant hoppers) in rice seedlings root dipped in compound assessed as mortality at 100 mg/l measured after 14 days of drench application by systemic insecticidal activity assay; assay type: functional, organism-based
[12] = test system: Myzus persicae; experiment: Insecticidal activity against Myzus persicae (green peach aphid) assessed as mortality after soil treatment at 25 degC measured after 11th day of infestation; assay type: functional, organism-based
[13] = test system: Plutella xylostella; experiment: Insecticidal activity against Plutella xylostella (diamondback moth) assessed as mortality after soil treatment on third day of infestation; assay type: functional, organism-based

Row | Structure (SMILES) | mortality at 10 µg/mL [1] [%] | mortality at 100 µg/mL [2] [%] | mortality at 100 µg/mL [3] [%] | logP ([4]; read-out: logP) | mortality at 10 µg/mL [5] [%] | logP [4] | Activity [6] | inhibition [7] | Activity [8] | Activity [9] | inhibition [10] | inhibition [11] | inhibition [12] | inhibition [13]
1 | O=[N+]([O-])/N=C1\N(CCCCCCCCCCCCN2CCN(Cc3ccc(Cl)nc3)/C2=N/[N+](=O)[O-])CCN1Cc1ccc(Cl)nc1 | 19 | 50 | 0 | 6.14 | 0 | – | – | – | – | – | – | – | – | –
2 | O=[N+]([O-])NC1=NCCN1Cc1ccc(Cl)nc1 [IMIDACLOPRID] | 100 | 100 | 97 | – | 17 | 1.88 | – | – | – | – | – | – | – | –
3 | O=[N+]([O-])/N=C1\N(CCCN2CCN(Cc3ccc(Cl)nc3)/C2=N/[N+](=O)[O-])CCN1Cc1ccc(Cl)nc1 | 13 | 27 | 80 | 4.35 | 13 | – | – | – | – | – | – | – | – | –
4 | O=[N+]([O-])/N=C1/N(Cc2ccc(Cl)nc2)CCN1Cc1cccc(CN2CCN(Cc3ccc(Cl)nc3)/C2=N/[N+](=O)[O-])c1 | 33 | 57 | 47 | 5.69 | 3 | – | – | – | – | – | – | – | – | –
5 | O=[N+]([O-])/N=C1\N(CCCCCCN2CCN(Cc3ccc(Cl)nc3)/C2=N/[N+](=O)[O-])CCN1Cc1ccc(Cl)nc1 | 10 | 23 | 83 | 4.97 | 27 | – | Active | Active | Active | Active | Active | Active | – | –
6 | O=[N+]([O-])/N=C1\N(CCCCCCCCN2CCN(Cc3ccc(Cl)nc3)/C2=N/[N+](=O)[O-])CCN1Cc1ccc(Cl)nc1 | 83 | 97 | 80 | 5.37 | 27 | – | – | – | – | – | – | – | – | –
7 | O=[N+]([O-])/N=C1\N(CCCCCCCN2CCN(Cc3ccc(Cl)nc3)/C2=N/[N+](=O)[O-])CCN1Cc1ccc(Cl)nc1 | 93 | 97 | 85 | 5.18 | 23 | – | Active | Active | Active | Active | Active | Active | Active | Active
8 | O=[N+]([O-])/N=C1\N(CCCCCCCCCN2CCN(Cc3ccc(Cl)nc3)/C2=N/[N+](=O)[O-])CCN1Cc1ccc(Cl)nc1 | 77 | 93 | 57 | 5.57 | 3 | – | – | – | – | – | – | – | – | –
9 | O=[N+]([O-])/N=C1\N(CCCCCCCCCCN2CCN(Cc3ccc(Cl)nc3)/C2=N/[N+](=O)[O-])CCN1Cc1ccc(Cl)nc1 | 27 | 43 | 27 | 5.76 | 0 | – | – | – | – | – | – | – | – | –
10 | O=[N+]([O-])/N=C1\N(Cc2ccc(CN3CCN(Cc4ccc(Cl)nc4)/C3=N/[N+](=O)[O-])cc2)CCN1Cc1ccc(Cl)nc1 | 97 | 97 | 47 | 5.69 | 3 | – | – | – | – | – | – | – | – | –
11 | O=[N+]([O-])/N=C1\N(CCCCN2CCN(Cc3ccc(Cl)nc3)/C2=N/[N+](=O)[O-])CCN1Cc1ccc(Cl)nc1 | 0 | 7 | 57 | 4.56 | 7 | – | – | – | – | – | – | – | – | –
12 | O=[N+]([O-])/N=C1\N(CCN2CCN(Cc3ccc(Cl)nc3)/C2=N/[N+](=O)[O-])CCN1Cc1ccc(Cl)nc1 | 23 | 97 | 20 | 4.13 | 0 | – | – | – | – | – | – | – | – | –
13 | O=[N+]([O-])/N=C1\N(CCCCCN2CCN(Cc3ccc(Cl)nc3)/C2=N/[N+](=O)[O-])CCN1Cc1ccc(Cl)nc1 | 0 | 13 | 40 | 4.77 | 0 | – | – | – | – | – | – | – | – | –
